Measurements as given in US10143681B2, “Factor XIa inhibitors” (MERCK SHARP & DOHME CORP., priority 2016, dated 2018).

Legend:
[1] = target: human Factor XIa (Homo sapiens (Human), UniProt P03951); assay: Factor XIa Assay; format: biochemical; settings: for IC50: human Factor XIa 0.04 nM, 30 min pre-incubation at 25° C., substrate GPR-AFC, read-out: FXIa IC50
Outline: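 IC50 values were obtained from four-parameter log(inhibitor)-response fits of % inhibition, then converted to Ki using Cheng-Prusoff. GPR-AFC hydrolysis was read at 400/505 nm after 60 min at 25 °C.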

[2] = target: Human plasma kallikrein (Homo sapiens (Human), UniProt P03952); assay: Kallikrein Assay; format: biochemical; settings: purified Human plasma kallikrein 0.5 nM, substrate Acetyl-K-P-R-AFC; read-out: P. KLK IC50
Chain of Human plasma kallikrein (P03952 391-638): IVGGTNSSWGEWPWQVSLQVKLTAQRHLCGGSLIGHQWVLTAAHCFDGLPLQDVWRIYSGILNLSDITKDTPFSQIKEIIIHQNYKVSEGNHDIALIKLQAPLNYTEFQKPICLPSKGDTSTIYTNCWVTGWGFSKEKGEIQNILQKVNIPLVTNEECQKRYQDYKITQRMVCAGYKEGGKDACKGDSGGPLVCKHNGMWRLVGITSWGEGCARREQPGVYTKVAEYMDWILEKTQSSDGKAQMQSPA
Chain of Human plasma kallikrein (P03952 20-390 partner): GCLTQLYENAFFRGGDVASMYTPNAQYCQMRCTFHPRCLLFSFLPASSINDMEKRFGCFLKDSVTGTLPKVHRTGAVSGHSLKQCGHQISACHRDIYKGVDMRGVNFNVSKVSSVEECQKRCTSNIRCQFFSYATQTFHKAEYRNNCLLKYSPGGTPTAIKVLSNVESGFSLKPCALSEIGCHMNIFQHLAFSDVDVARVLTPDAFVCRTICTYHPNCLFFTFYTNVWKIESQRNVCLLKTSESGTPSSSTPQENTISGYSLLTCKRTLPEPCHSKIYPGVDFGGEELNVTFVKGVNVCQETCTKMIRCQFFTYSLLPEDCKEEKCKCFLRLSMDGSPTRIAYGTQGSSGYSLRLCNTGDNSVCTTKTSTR
Protocol: The effectiveness of a compound of the present invention as an inhibitor of Kallikrein can be determined using a relevant purified serine protease, and an appropriate synthetic substrate. The rate of hydrolysis of the chromogenic or fluorogenic substrate by the relevant serine protease was measured both in the absence and presence of compounds of the present invention. Assays were conducted at room temperature or at 37° C. […] A decrease in the rate of fluorescence change in the presence of inhibitor is indicative of enzyme inhibition. Such methods are known to one skilled in the art. The results of this assay are expressed as the half-maximal inhibitory concentrations (IC50), or the inhibitory constant, Ki.
Kallikrein determinations were made in 50 mM HEPES buffer at pH 7.4 containing 150 mM NaCl, 5 mM CaCl2, and 0.1% PEG 8000 (polyethylene glycol; Fisher Scientific). Determinations were made using purified Human plasma kallikrein at a final concentration of 0.5 nM (Enzyme Research Laboratories) and the synthetic substrate, Acetyl-K-P-R-AFC (Sigma # C6608) at a concentration of […].
Times required to achieve equilibration between enzyme and inhibitor were determined in control experiments. The reactions were performed under linear progress curve conditions and fluorescence increase measured at 405 Ex/510 Em nm. […] IC50 was determined by inflection point from a four parameter logistic curve fit. Ki was calculated using the Cheng Prusoff equation, Ki=IC50/(1+([S]/Km)).

[3] = tested on: Human plasma (intrinsic coagulation cascade); assay: Activated Partial Thromboplastin Time (aPTT) Assay; settings: concentration that causes a 50% (1.5×) increase of clot time over vehicle
Protocol: Activated partial thromboplastin time (aPTT) is a clotting test that measures the intrinsic coagulation cascade. The test is performed in sodium citrated plasma. Human plasma is made by collecting blood from healthy donors of both genders into Na citrate tubes (Sarstedt coagulation 9NC/10 ml). Blood is centrifuged at 1500×g and the plasma is collected. aPTT is checked on each individual donor and those within the normal range (28-40 seconds) are pooled, aliquoted, and stored at −80 C. Test samples are prepared by spiking inhibitors or vehicle into plasma. These spiked samples are then run on a coagulation analyzer (STA-R Evolution, Stago Diagnostica). In general, the analyzer performs the following steps: Factor XII is activated by addition of ellagic acid (Pacific Hemostasis), and then time to clot is measured after re-calcification of the sample. Inhibition of FXI will cause aPTT clot time to be prolonged. The data is expressed as percent increase over vehicle control clot time and the concentration that causes a 50% (1.5×) percent increase of clot time are reported.

Chain of human Factor XIa (P03951 388-625): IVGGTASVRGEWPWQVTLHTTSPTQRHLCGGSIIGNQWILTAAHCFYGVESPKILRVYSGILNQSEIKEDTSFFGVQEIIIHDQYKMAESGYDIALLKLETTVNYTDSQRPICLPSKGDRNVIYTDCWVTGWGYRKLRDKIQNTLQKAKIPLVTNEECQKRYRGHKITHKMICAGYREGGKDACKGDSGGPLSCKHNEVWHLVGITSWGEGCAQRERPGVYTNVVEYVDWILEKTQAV
Chain of human Factor XIa (P03951 19-387 partner): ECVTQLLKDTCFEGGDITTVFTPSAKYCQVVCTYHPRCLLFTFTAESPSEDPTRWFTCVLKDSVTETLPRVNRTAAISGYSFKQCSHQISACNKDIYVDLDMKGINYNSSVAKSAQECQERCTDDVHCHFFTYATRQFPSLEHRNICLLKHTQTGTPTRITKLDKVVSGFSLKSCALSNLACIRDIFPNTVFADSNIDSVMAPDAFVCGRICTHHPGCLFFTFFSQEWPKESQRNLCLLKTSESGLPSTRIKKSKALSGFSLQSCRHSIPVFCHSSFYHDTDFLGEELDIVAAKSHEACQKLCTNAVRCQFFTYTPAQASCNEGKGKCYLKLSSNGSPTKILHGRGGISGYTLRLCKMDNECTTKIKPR

In the case of `COC(=O)c1ccc(NC(=O)C(CC2CC2)c2ccc(-c3c(C(F)F)ccc(Cl)c3F)c[n+]2[O-])cc1` (single isomer, unassigned) [Example 114, 5-(3-chloro-6-(difluoromethyl)-2-fluorophenyl)-2-(3-cyclopropyl-1-((4-(methoxycarbonyl)phenyl)amino)-1-oxopropan-2-yl)pyridine 1-oxide], the “FXIa % Inh. @ 1000 nM” value ([1]; @ 1000 nM compound) is reported as 45%, the IC50 [1] is reported as 1000 nM and the IC50 [2] is reported as 201 nM.

`O=C(O)c1ccc(NC(=O)C(CC2CC2)c2ccc(-c3c(OC(F)F)ccc(Cl)c3F)c[n+]2[O-])cc1F` (single isomer, unassigned) [Example 73] was tested, and the “aPTT (1.5x)” value [3] was 2.15 µM and the IC50 [2] was 88 nM.

In the case of `O=C(O)c1ccc(NC(=O)C(CC2CC(F)C2)c2ccc(-c3c(OC(F)F)ccc(Cl)c3F)c[n+]2[O-])cc1` (single isomer, unassigned) [Example 102, 2-(1-((4-carboxyphenyl)amino)-3-(3-fluorocyclobutyl)-1-oxopropan-2-yl)-5-(3-chloro-6-(difluoromethoxy)-2-fluorophenyl)pyridine 1-oxide], the “aPTT (1.5x)” value [3] is reported as 1 µM and the IC50 [2] is reported as 31.8 nM.

With `CC1C(C)C1CC(C(=O)Nc1ccc(C(=O)O)cc1)c1ccc(-c2c(OC(F)F)ccc(Cl)c2F)c[n+]1[O-]` (single isomer, unassigned) [Example 98, 2-(1-((4-carboxyphenyl)amino)-3-(2,3-dimethylcyclopropyl)-1-oxopropan-2-yl)-5-(3-chloro-6-(difluoromethoxy)-2-fluorophenyl)pyridine 1-oxide] the “aPTT (1.5x)” value [3] was 0.72 µM and the IC50 [2] was 11.3 nM.

With `O=C(O)c1ccc(NC(=O)C(CC23CC(C2)C3)c2ccc(-c3c(OC(F)F)ccc(Cl)c3F)c[n+]2[O-])cc1` (single isomer, unassigned) [Example 52] the “aPTT (1.5x)” value [3] was 1.17 µM and the IC50 [2] was 14 nM.

In the case of `O=C(O)c1ccc(NC(=O)C(CC2CCC(F)(F)CC2)c2ccc(-c3c(OC(F)F)ccc(Cl)c3F)c[n+]2[O-])cc1` (single isomer, unassigned) [Example 39], the “aPTT (1.5x)” value [3] is reported as 1.30 µM and the IC50 [2] is reported as 25 nM.

With `CC1C(C)C1CC(C(=O)Nc1ccc(C(=O)O)cc1)c1ccc(-c2c(OC(F)F)ccc(Cl)c2F)c[n+]1[O-]` (single isomer, unassigned) [Example 99, 2-(1-((4-carboxyphenyl)amino)-3-(2,3-dimethylcyclopropyl)-1-oxopropan-2-yl)-5-(3-chloro-6-(difluoromethoxy)-2-fluorophenyl)pyridine 1-oxide] the “aPTT (1.5x)” value [3] was 2.78 µM and the IC50 [2] was 92 nM.

Work on `O=C(O)c1ccc(NC(=O)C(CC2CC2C(F)F)c2ccc(-c3c(C(F)F)ccc(Cl)c3F)c[n+]2[O-])cc1` (single isomer, unassigned) [Example 90, 2-(1-((4-carboxyphenyl)amino)-3-(2-(difluoromethyl)cyclopropyl)-1-oxopropan-2-yl)-5-(3-chloro-6-(difluoromethyl)-2-fluorophenyl)pyridine 1-oxide] yielded an IC50 [1] of 1.1 nM and an IC50 [2] of 5.3 nM.

In the case of `O=C(O)c1ccc(NC(=O)C(CC2CC2C(F)(F)F)c2ccc(-c3c(C(F)F)ccc(Cl)c3F)c[n+]2[O-])cc1` (single isomer, unassigned) [Example 87, 2-(1-((4-carboxyphenyl)amino)-1-oxo-3-(2-(trifluoromethyl)cyclopropyl)propan-2-yl)-5-(3-chloro-6-(difluoromethyl)-2-fluorophenyl)pyridine 1-oxide], the “aPTT (1.5x)” value [3] is reported as 0.92 µM and the IC50 [2] is reported as 2.7 nM.

Work on `O=C(O)c1ccc(NC(=O)C(CC2CC2C(F)F)c2ccc(-c3c(C(F)F)ccc(Cl)c3F)c[n+]2[O-])cc1` (single isomer, unassigned) [Example 89, 2-(1-((4-carboxyphenyl)amino)-3-(2-(difluoromethyl)cyclopropyl)-1-oxopropan-2-yl)-5-(3-chloro-6-(difluoromethyl)-2-fluorophenyl)pyridine-1-oxide] yielded an IC50 [1] of 0.6 nM and an IC50 [2] of 7.1 nM.

Compound `Cc1cc(NC(=O)C(CC2CC2)c2ccc(-c3c(C(F)F)ccc(Cl)c3F)c[n+]2[O-])ccc1C(=O)O` (single isomer, unassigned) [Example 122, 2-(1-((4-carboxy-3-methylphenyl)amino)-3-cyclopropyl-1-oxopropan-2-yl)-5-(3-chloro-6-(difluoromethyl)-2-fluorophenyl)pyridine 1-oxide] has an IC50 [1] of 9.9 nM and an IC50 [2] of 69.8 nM.

`CC1CC(CC(C(=O)Nc2ccc(C(=O)O)cc2)c2ccc(-c3c(C(F)(F)F)ccc(Cl)c3F)c[n+]2[O-])C1` (single isomer, unassigned) [Example 75, 2-(1-((4-carboxyphenyl)amino)-3-(3-methylcyclobutyl)-1-oxopropan-2-yl)-5-(3-chloro-2-fluoro-6-(trifluoromethyl)phenyl) pyridine 1-oxide] showed an IC50 [1] of 3.3 nM and an IC50 [2] of 77.8 nM.

In the case of `O=C(O)c1ccc(NC(=O)C(CC2CC2)c2ccc(-c3cc(Cl)ccc3C(F)F)c[n+]2[O-])cc1` (single isomer, unassigned) [Example 28, (S)- or (R)-2-(1-((4-carboxyphenyl)amino)-3-cyclopropyl-1-oxopropan-2-yl)-5-(5-chloro-2-(difluoromethyl)phenyl)pyridine 1-oxide], the “aPTT (1.5x)” value [3] is reported as greater than 100 µM and the IC50 [1] is reported as 293 nM.

In the case of `O=C(O)c1ccc(NC(=O)C(CC2CC2)c2ccc(-c3cc(Cl)ccc3OC(F)F)c[n+]2[O-])cc1` (single isomer, unassigned) [Example 6, (S)- or (R)-4-[(2-{5-[5-chloro-2-(difluoromethoxy)phenyl]-1-oxidopyridin-2-yl}-3-cyclopropylpropanoyl)amino] benzoic acid], the “aPTT (1.5x)” value [3] is reported as greater than 100 µM, the inhibition at 1 µM ([1]; @ 1000 nM compound, read-out: FXIa % Inh. @ 1000 nM) is reported as 30% and the IC50 [1] is reported as greater than 1000 nM.

Compound `C[C@]1(O)CC[C@@H](CC(C(=O)Nc2ccc(C(=O)O)cc2)c2ccc(-c3c(OC(F)F)ccc(Cl)c3F)c[n+]2[O-])CC1` (single isomer, unassigned) [Example 40, 2-(1-((4-carboxyphenyl)amino)-3-((1s,4s)-4-hydroxy-4-methylcyclohexyl)-1-oxopropan-2-yl)-5-(3-chloro-6-(difluoromethoxy)-2-fluorophenyl)pyridine 1-oxide] has an IC50 [1] of 3.2 nM and an IC50 [2] of 35 nM.

With `O=C(O)c1ccc(NC(=O)C(CC2CC2F)c2ccc(-c3c(C(F)F)ccc(Cl)c3F)c[n+]2[O-])cc1` (single isomer, unassigned) [Example 91, 2-(1-((4-carboxyphenyl)amino)-3-(2-fluorocyclopropyl)-1-oxopropan-2-yl)-5-(3-chloro-6-(difluoromethyl)-2-fluorophenyl)pyridine 1-oxide] the “aPTT (1.5x)” value [3] was 5.93 µM and the IC50 [1] was 27.9 nM.

For `O=C(O)c1ccc(NC(=O)[C@@H](CC2CCC2)c2ccc(-c3c(C(F)F)ccc(Cl)c3F)c[n+]2[O-])cc1` (mixture of isomers) [Example 3, (S)- and (R)-2-(1-((4-Carboxyphenyl)amino)-3-cyclobutyl-1-oxopropan-2-yl)-5-(3-chloro-6-(difluoromethyl)-2-fluorophenyl)pyridine 1-oxide], the “aPTT (1.5x)” value [3] was greater than 100 µM and the IC50 [1] was 39 nM.

`CC(C)Oc1ccc(Cl)c(F)c1-c1ccc(C(CC2CC2)C(=O)Nc2ccc(C(=O)O)cc2)[n+]([O-])c1` (single isomer, unassigned) [Example 17, (R)- or (S)-4-[(2-{5-[3-chloro-2-fluoro-6-(1-methylethoxy)phenyl]-1-oxidopyridin-2-yl}-3-cyclopropylpropanoyl)amino] benzoic acid] was tested, and the “aPTT (1.5x)” value [3] was greater than 100 µM and the IC50 [1] was 24 nM.

In the case of `O=C1CCC(CC(C(=O)Nc2ccc(C(=O)O)cc2)c2ccc(-c3c(OC(F)F)ccc(Cl)c3F)c[n+]2[O-])CC1` (single isomer, unassigned) [Example 33], the IC50 [2] is reported as 81 nM.

Work on `O=C(O)c1ccc(NC(=O)C(CC2CC2(F)F)c2ccc(-c3c(C(F)F)ccc(Cl)c3F)c[n+]2[O-])cc1` (single isomer, unassigned) [Example 77, 2-(1-((4-carboxyphenyl)amino)-3-(2,2-difluorocyclopropyl)-1-oxopropan-2-yl)-5-(3-chloro-6-(difluoromethyl)-2-fluorophenyl)pyridine 1-oxide] yielded an IC50 [2] of 37.6 nM.

For `C[C@@H]1C[C@H]1C[C@@H](C(=O)Nc1ccc(C(=O)O)cc1)c1ccc(-c2c(OC(F)F)ccc(Cl)c2F)c[n+]1[O-]` (single isomer, unassigned) [Example 56], the “aPTT (1.5x)” value [3] was 1.34 µM and the IC50 [1] was 0.38 nM.
